Experimental data as given in US20250066371A1, “FLUOROALKOXYALKYLENE-DIHYDROIMIDAZO[5,1-D]TETRAZINONE COMPOUNDS AND RELATED COMPOUNDS AND THEIR USE IN TREATING MEDICAL CONDITIONS” (priority 2023, published 2025).

Key:
Assay in all cases: Cell panel nuclear dye assay
Assay type in all cases: cell-based
CRO-AP2 = settings: Homo sapiens, 120 h, Lymphoma, 5-day incubation
Procedure: (§1) Cells were grown in RPMI1640, 10% FBS, 2 mM L-alanyl-L-glutamine, 1 mM Na pyruvate, or a special medium. Cells were seeded into 384-well plates and incubated in a humidified atmosphere of 5% CO2 at 37° C. Compound was added the day following cell seeding. At the same time, a time zero untreated cell plate was generated. After a 5-day incubation period, cells were fixed and stained to allow fluorescence imaging of nuclei.
(§2) Compounds were serially diluted in 2-fold steps from the highest test concentration specified, and assayed over 10 concentrations with a maximum assay concentration of 0.1% DMSO. Automated fluorescence microscopy was carried out using a Molecular Devices ImageXpress Micro XL high-content imager, and images were collected with a 4× objective. 16-bit TIFF images were acquired and analyzed with MetaXpress 5.1.0.41 software.
(§3) Cell proliferation was measured by the fluorescence intensity of an incorporated nuclear dye. The output is referred to as the relative cell count, where the measured nuclear intensity is transformed to percent of control (POC) using the following formula: […]
(§4) Cell count IC50 is the test compound concentration at 50% of maximal possible response. EC50 is the test compound concentration at the curve inflection point or half the effective response (parameter C of the fitted curve solution). GI50 is the concentration needed to reduce the observed growth by half (midway between the curve maximum and the time zero value). Activity area is an estimate of the integrated area above the curve. Activity area values range from 0-10, where a value of zero indicates no inhibition of proliferation at all concentrations, and a value of 10 indicates complete inhibition of proliferation at all concentrations. In rare instances, values <0 or >10 may be observed. In these instances, values <0 should be considered as equivalent to 0, whereas values >10 should be considered equivalent to 10.

DB = settings: Homo sapiens, 120 h, Lymphoma (B-cell), 5-day incubation
Procedure: as §1, §2, §3, §4

KHOS-240S = settings: 120 h, Osteosarcoma, 5-day incubation
Procedure: as §1, §2, §3, §4

SW48 = settings: Homo sapiens, 120 h, Colon, 5-day incubation
Procedure: as §1, §2, §3, §4

BC-1 = settings: Homo sapiens, BC1, 120 h, Lymphoma (B-cell), 5-day incubation
Procedure: as §1, §2, §3, §4

A101D = settings: Homo sapiens, 120 h, Melanoma, 5-day incubation
Procedure: as §1, §2, §3, §4

U-87 MG = settings: Homo sapiens, 120 h, Glioma (glioblastoma), 5-day incubation
Procedure: as §1, §2, §3, §4

SHP-77 = settings: Homo sapiens, SHP77, 120 h, Lung (SCLC), 5-day incubation
Procedure: as §1, §2, §3, §4

SW620 = settings: Homo sapiens, SW-620, 120 h, Colon, 5-day incubation
Procedure: as §1, §2, §3, §4

TUR = settings: 120 h, Lymphoma (histiocytic), 5-day incubation
Procedure: as §1, §2, §3, §4

SR = settings: Homo sapiens, 120 h, Lymphoma (large cell immunoblastic), 5-day incubation
Procedure: as §1, §2, §3, §4

SCC-4 = settings: Homo sapiens, 120 h, Head & neck (squamous cell carcinoma, tongue), 5-day incubation
Procedure: as §1, §2, §3, §4

C32 = settings: Homo sapiens, 120 h, Melanoma, 5-day incubation
Procedure: as §1, §2, §3, §4

A427 = settings: Homo sapiens, A-427, 120 h, Lung (NSCLC), 5-day incubation
Procedure: as §1, §2, §3, §4

T24 = settings: Homo sapiens, T-24, 120 h, Bladder, 5-day incubation
Procedure: as §1, §2, §3, §4

DBTRG-05MG = settings: Homo sapiens, 120 h, Glioma (glioblastoma multiforme), 5-day incubation
Procedure: as §1, §2, §3, §4

NCI-H441 = settings: Homo sapiens, 120 h, Lung (NSCLC), 5-day incubation
Procedure: as §1, §2, §3, §4

NCI-H446 = settings: Homo sapiens, 120 h, Lung (SCLC), 5-day incubation
Procedure: as §1, §2, §3, §4

CCF-STTG1 = settings: Homo sapiens, 120 h, Glioma (astrocytoma), 5-day incubation
Procedure: as §1, §2, §3, §4

647-V = settings: Homo sapiens, 120 h, Bladder, 5-day incubation
Procedure: as §1, §2, §3, §4

NCI-H747 = settings: Homo sapiens, 120 h, Colon (cecum), 5-day incubation
Procedure: as §1, §2, §3, §4

SCC-9 = settings: Homo sapiens, 120 h, Head & neck (squamous cell carcinoma, tongue), 5-day incubation
Procedure: as §1, §2, §3, §4

OE21 = settings: 120 h, Head & neck (squamous cell carcinoma, esophagus), 5-day incubation
Procedure: as §1, §2, §3, §4

NCI-H661 = settings: Homo sapiens, 120 h, Lung (NSCLC), 5-day incubation
Procedure: as §1, §2, §3, §4

M059J = settings: Homo sapiens, 120 h, Glioma (glioblastoma), 5-day incubation
Procedure: as §1, §2, §3, §4

`NC(=O)c1ncn2c(=O)n(CCOC(F)(F)F)nnc12` [Compound I-1, 4-Oxo-3-(2-(trifluoromethoxy)ethyl)-3,4-dihydroimidazo[5,1-d][1,2,3,5]tetrazine-8-carboxamide] was tested. Which EC50 (CRO-AP2) did it give?
The EC50 was ≤ 30 µM.

What about the IC50 (CRO-AP2) of the same compound?
Its IC50 is ≤ 30 µM.

What about the EC50 (DB) of the same compound?
The EC50 was ≤ 30 µM.

And the IC50 (DB)?
Its IC50 is 30 to 70 µM.

And the EC50 (KHOS-240S)?
Its EC50 is > 150 µM.

What about the IC50 (KHOS-240S) of the same compound?
The IC50 was > 150 µM.

What about the EC50 (SW48) of the same compound?
Its EC50 is ≤ 30 µM.

And the IC50 (SW48)?
Its IC50 is ≤ 30 µM.

What about the EC50 (BC-1) of the same compound?
Its EC50 is ≤ 30 µM.

What about the IC50 (BC-1) of the same compound?
The IC50 was ≤ 30 µM.

And the EC50 (A101D)?
Its EC50 is ≤ 30 µM.

What about the IC50 (A101D) of the same compound?
The IC50 was ≤ 30 µM.

What about the EC50 (U-87 MG) of the same compound?
Its EC50 is 30 to 70 µM.

And the IC50 (U-87 MG)?
The IC50 was 70 to 150 µM.

And the EC50 (SHP-77)?
The EC50 was 30 to 70 µM.

And the IC50 (SHP-77)?
Its IC50 is 70 to 150 µM.

And the EC50 (SW620)?
Its EC50 is 70 to 150 µM.

And the IC50 (SW620)?
The IC50 was 70 to 150 µM.

What about the EC50 (TUR) of the same compound?
The EC50 was ≤ 30 µM.

And the IC50 (TUR)?
Its IC50 is ≤ 30 µM.

And the EC50 (SR)?
Its EC50 is ≤ 30 µM.

And the IC50 (SR)?
The IC50 was ≤ 30 µM.

And the EC50 (SCC-4)?
The EC50 was ≤ 30 µM.

And the IC50 (SCC-4)?
The IC50 was > 150 µM.

What about the EC50 (C32) of the same compound?
The EC50 was 30 to 70 µM.

And the IC50 (C32)?
Its IC50 is 70 to 150 µM.

And the EC50 (A427)?
Its EC50 is 30 to 70 µM.

What about the IC50 (A427) of the same compound?
The IC50 was 30 to 70 µM.

And the EC50 (T24)?
Its EC50 is 30 to 70 µM.

What about the IC50 (T24) of the same compound?
The IC50 was > 150 µM.

And the EC50 (DBTRG-05MG)?
The EC50 was ≤ 30 µM.

What about the IC50 (DBTRG-05MG) of the same compound?
Its IC50 is ≤ 30 µM.

And the EC50 (NCI-H441)?
The EC50 was > 150 µM.

And the IC50 (NCI-H441)?
The IC50 was > 150 µM.

And the EC50 (NCI-H446)?
The EC50 was 30 to 70 µM.

And the IC50 (NCI-H446)?
The IC50 was 30 to 70 µM.

And the EC50 (CCF-STTG1)?
The EC50 was ≤ 30 µM.

And the IC50 (CCF-STTG1)?
The IC50 was 30 to 70 µM.

What about the EC50 (647-V) of the same compound?
Its EC50 is 30 to 70 µM.

And the IC50 (647-V)?
The IC50 was 30 to 70 µM.

And the EC50 (NCI-H747)?
Its EC50 is > 150 µM.

What about the IC50 (NCI-H747) of the same compound?
Its IC50 is > 150 µM.

What about the EC50 (SCC-9) of the same compound?
The EC50 was 70 to 150 µM.

What about the IC50 (SCC-9) of the same compound?
Its IC50 is 70 to 150 µM.

And the EC50 (OE21)?
The EC50 was 30 to 70 µM.

What about the IC50 (OE21) of the same compound?
Its IC50 is 30 to 70 µM.

And the EC50 (NCI-H661)?
The EC50 was ≤ 30 µM.

What about the IC50 (NCI-H661) of the same compound?
Its IC50 is > 150 µM.

What about the EC50 (M059J) of the same compound?
Its EC50 is 30 to 70 µM.

What about the IC50 (M059J) of the same compound?
The IC50 was 30 to 70 µM.
